Columns and labels:
EGFR L858R = EGFR L858R (Homo sapiens, UniProt P00533, L858R); assay: EGFR biochemical assay (headed HTRF-based; method describes Z'-LYTE), L858R; conditions: Table 4
Procedure: (§1) To measure the IC50 values of compounds herein against EGFR, a Z′-LYTE assay (ThermoFisher) was used. Briefly, 2.5 μL of different concentrations of the compounds in 4% DMSO were added to 5 μL kinase/peptide mixture in each well of a 384-well plate (Corning Cat. #3676). 2.5 μL of 4× ATP solution (4× ATP, 50 mM HEPES, pH 7.5, 0.01% BRIJ-35, 10 mM MgCl2, 1 mM EGTA) were added to each well. The plate was shaken for 30 seconds, and then incubated at room temperature for 60 minutes. 5 μL of a 1:100000 dilution of Development Reagent A was added to each well. The plate was then incubated for 60 mins at room temperature. 5 μL of the stop reagent was then added. The plate was subsequently read on a fluorescence plate reader, and the emissions ratio was calculated to determine the ratio of Ser/Thr 07 phosphorylated by the reaction. Emissions Ratio═Coumarin Emission (443 nm)/Flourescein Emission (520 nm).
(§2) HTRF-based EGFR assay data are provided below in Table 4.

EGFR L858R/T790M = EGFR L858R/T790M (Homo sapiens, UniProt P00533, L858R/T790M); assay: EGFR biochemical assay (headed HTRF-based; method describes Z'-LYTE), L858R/T790M; conditions: Table 4
Procedure: as §1, §2

[1] = biological target: EGFR mutant L858R Ba/F3 cells (Homo sapiens, UniProt P00533, L858R, cells depend on it); assay: Ba/F3 cell proliferation (Cell Titer Glo), EGFR L858R; assay type: cell-based, murine; conditions: 72 hours, Table 6, read-out: L858R BaF3
Description: (§3) The EGFR mutant L858R Ba/F3 cells have been previously described (Zhou, W., et al. Nature 462, 2009, 1070-1074). The EGFR C797S and C775S mutations were introduced via site directed mutagenesis using the Quick Change Site-Directed Mutagenesis kit into a vector containing EGFR L858R mutation (Stratagene; La Jolla, CA) according to the manufacturer's instructions. All constructs were confirmed by DNA sequencing. The constructs were then shuttled into the retroviral vector JP1540 by either using the Cre-recombination system (Agilent Technologies, Santa Clara, CA) or the In-fusion HD Cloning kit (Takara Bio USA, Inc.; Mountain view, CA). Ba/F3 cells were then infected with retrovirus per standard protocols, as described previously (Zhou, et al, Nature 2009). Stable clones were obtained by selection in puromycin (2 μg/ml). All BaF/3 mutant cells were maintained in RPMI 1640 (Cellgro; Mediatech Inc., Herndon, CA) supplemented with 10% FBS, 100 units/mL penicillin, 100 units/mL streptomycin.
(§4) Growth and inhibition of growth was assessed by the Cell Titer Glo assay (Promega, Madison, WI) and was performed according to the manufacturer's instructions. The Cell Titer Glo assay is a luminescence-based method used to determine the number of viable cells based on quantitation of the ATP present, which is directly proportional to the amount of metabolically active cells present. Ba/F3 cells of different EGFR genotypes were exposed to compounds for 72 hours and the number of cells used per experiment was determined empirically as has been previously established (Zhou, et al., Nature 2009). All experimental points were set up in triplicates in 384-well plates. […] The curves were fitted using a non-linear regression model with a sigmoidal dose response.
(§5) Ba/F3 cells assay data are provided below in Table 5 and Table 6. For inhibitory activity against EGFR mutants, the following designations are used: <0.1 μM=A, 0.1 μM˜0.5 μM=B, 0.5 μM˜2.5 μM=C, ≥2.5 μM=D

[2] = biological target: EGFR L858R/C797S Ba/F3 cells (Homo sapiens, UniProt P00533, C797S/L858R, cells depend on it); assay: Ba/F3 cell proliferation (Cell Titer Glo), EGFR L858R/C797S; assay type: cell-based, murine; conditions: 72 hours, Table 6
Description: as §3, §4, §5

Sequence of EGFR mutant L858R Ba/F3 cells (P00533 whole entry L858R, the tested form may be a part): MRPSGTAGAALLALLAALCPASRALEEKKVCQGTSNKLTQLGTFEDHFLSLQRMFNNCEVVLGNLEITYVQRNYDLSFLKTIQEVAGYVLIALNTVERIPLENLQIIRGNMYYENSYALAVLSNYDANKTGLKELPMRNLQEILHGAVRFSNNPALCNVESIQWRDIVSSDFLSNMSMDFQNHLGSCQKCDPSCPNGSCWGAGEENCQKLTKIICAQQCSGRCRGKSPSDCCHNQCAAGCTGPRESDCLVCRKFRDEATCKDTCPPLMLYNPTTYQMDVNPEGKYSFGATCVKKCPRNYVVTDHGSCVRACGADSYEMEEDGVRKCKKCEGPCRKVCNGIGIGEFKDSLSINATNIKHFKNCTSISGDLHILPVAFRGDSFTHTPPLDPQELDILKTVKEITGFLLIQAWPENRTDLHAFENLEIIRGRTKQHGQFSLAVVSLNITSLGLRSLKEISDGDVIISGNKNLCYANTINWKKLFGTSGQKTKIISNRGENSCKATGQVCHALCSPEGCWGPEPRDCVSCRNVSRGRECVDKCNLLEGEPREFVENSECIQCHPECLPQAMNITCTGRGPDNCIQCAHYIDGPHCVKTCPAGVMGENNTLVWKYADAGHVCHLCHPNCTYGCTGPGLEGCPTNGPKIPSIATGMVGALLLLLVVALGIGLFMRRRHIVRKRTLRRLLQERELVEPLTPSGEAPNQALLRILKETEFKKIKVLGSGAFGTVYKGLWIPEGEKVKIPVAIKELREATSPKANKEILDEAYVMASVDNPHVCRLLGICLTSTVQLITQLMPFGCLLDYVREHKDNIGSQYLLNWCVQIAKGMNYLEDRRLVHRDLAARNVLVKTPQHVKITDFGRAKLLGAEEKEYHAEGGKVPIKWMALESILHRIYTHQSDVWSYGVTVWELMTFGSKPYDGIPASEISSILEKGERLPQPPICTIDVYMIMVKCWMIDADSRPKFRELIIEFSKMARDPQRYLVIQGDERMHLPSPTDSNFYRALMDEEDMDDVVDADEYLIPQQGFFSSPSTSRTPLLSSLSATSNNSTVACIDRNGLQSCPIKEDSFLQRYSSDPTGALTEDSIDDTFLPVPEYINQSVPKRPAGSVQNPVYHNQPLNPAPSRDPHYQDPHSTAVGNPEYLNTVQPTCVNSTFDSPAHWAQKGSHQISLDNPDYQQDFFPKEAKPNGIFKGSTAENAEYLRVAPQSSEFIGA
Sequence of EGFR L858R/C797S Ba/F3 cells (P00533 whole entry C797S/L858R): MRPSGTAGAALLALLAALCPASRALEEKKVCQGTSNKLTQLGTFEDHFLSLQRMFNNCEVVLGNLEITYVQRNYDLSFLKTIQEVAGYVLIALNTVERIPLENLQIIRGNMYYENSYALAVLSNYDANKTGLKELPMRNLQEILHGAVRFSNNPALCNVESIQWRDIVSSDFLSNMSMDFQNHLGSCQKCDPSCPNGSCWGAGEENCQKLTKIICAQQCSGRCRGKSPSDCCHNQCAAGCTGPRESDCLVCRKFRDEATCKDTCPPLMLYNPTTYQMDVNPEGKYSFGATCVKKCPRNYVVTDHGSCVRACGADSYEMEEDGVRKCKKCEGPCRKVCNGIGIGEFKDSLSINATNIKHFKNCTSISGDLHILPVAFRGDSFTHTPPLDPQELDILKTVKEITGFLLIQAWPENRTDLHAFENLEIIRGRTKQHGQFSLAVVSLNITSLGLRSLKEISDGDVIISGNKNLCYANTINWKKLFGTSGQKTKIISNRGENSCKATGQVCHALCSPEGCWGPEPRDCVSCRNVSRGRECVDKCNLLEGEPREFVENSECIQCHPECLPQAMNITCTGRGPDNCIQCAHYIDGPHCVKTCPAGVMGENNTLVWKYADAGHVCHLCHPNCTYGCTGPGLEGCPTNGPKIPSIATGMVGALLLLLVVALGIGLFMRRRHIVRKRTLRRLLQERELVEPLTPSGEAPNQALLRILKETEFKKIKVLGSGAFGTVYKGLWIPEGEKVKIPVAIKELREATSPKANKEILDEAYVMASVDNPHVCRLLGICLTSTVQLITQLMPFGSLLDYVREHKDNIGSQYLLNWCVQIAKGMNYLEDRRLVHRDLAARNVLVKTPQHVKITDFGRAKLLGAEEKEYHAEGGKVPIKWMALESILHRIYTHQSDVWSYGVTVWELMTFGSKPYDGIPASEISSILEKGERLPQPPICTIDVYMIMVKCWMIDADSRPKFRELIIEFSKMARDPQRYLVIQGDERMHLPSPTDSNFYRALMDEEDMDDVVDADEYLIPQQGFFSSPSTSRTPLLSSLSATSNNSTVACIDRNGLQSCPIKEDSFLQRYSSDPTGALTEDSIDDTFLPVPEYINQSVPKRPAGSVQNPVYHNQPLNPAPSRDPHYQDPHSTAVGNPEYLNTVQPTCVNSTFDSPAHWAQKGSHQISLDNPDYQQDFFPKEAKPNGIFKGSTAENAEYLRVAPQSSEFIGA
Sequence of EGFR L858R/T790M (P00533 25-1210 T790M/L858R): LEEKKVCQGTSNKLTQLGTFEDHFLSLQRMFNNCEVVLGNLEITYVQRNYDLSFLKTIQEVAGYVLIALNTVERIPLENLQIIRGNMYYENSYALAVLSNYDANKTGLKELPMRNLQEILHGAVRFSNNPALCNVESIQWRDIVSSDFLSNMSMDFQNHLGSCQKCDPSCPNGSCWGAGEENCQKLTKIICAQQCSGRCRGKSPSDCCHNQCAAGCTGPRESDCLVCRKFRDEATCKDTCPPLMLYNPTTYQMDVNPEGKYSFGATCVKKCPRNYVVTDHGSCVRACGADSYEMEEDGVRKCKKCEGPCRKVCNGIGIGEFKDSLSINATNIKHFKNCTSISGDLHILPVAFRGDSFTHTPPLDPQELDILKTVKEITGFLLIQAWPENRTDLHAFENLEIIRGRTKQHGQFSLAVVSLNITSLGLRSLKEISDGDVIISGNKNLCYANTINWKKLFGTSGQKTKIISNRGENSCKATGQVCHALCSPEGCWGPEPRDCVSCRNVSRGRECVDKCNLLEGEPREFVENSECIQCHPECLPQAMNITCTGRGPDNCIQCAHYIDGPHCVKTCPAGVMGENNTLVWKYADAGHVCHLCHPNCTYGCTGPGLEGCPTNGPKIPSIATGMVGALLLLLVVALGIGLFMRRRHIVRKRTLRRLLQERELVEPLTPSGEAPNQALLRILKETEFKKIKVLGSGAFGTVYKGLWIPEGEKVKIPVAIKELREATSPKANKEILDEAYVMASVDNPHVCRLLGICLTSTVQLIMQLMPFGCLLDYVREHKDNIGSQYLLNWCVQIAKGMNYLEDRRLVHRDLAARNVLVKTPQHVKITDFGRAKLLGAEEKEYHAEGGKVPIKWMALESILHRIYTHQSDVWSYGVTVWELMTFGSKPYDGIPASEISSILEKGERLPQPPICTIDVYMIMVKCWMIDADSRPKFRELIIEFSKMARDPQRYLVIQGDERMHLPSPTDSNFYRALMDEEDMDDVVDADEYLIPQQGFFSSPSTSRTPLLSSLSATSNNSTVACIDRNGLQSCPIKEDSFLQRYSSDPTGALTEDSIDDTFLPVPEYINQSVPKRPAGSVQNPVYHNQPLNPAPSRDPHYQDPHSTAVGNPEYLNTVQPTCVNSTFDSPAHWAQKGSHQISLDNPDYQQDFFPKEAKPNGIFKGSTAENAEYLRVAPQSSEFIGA
Sequence of EGFR L858R (P00533 25-1210 L858R): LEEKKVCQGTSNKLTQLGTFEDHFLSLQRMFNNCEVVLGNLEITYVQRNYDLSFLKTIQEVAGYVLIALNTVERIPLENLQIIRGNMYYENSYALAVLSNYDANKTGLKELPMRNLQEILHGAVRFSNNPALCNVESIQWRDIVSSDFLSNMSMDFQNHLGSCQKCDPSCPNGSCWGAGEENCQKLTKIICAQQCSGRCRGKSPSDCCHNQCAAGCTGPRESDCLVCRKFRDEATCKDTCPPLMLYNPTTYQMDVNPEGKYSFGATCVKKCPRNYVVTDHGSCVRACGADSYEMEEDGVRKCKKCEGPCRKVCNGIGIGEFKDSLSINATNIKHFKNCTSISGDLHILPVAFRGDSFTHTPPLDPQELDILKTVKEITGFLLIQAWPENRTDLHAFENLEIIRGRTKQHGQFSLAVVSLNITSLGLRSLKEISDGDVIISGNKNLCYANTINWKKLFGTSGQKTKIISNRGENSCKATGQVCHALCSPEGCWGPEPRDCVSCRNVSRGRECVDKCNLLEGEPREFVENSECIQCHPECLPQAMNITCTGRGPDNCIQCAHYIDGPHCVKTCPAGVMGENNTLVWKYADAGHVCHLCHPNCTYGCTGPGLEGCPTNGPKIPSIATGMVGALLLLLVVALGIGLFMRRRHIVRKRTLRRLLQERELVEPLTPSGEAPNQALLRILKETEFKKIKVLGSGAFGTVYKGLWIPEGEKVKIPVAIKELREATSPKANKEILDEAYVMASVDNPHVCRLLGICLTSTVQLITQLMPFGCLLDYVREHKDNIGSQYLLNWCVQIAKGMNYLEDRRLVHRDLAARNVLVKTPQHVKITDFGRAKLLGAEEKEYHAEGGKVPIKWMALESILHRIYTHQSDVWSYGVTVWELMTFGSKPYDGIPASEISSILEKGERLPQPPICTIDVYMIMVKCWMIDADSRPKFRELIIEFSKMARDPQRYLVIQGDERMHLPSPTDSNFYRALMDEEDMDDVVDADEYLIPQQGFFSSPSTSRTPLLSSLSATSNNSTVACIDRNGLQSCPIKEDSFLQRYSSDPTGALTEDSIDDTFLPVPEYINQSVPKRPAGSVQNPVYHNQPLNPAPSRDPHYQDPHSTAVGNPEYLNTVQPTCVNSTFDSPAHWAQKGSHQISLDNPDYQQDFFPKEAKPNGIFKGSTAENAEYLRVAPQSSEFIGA

SMILES	IC50 (EGFR L858R)	IC50 (EGFR L858R/T790M)	GI50 [1]	GI50 [2]
C=CC(=O)N1CC[C@H](N2Cc3cnc(Nc4ccc(N5CCN(C)CC5)cc4)nc3N(C3CC(O)C3)C2=O)c2cccc(C)c21 (stereo partly drawn) [Compound 152, 1-(3-hydroxycyclobutyl)-7-[4-(4-methylpiperazin-1-yl)anilino]-S-[(4S)-8-methyl-1-prop-2-enoyl-3,4-dihydro-2H-quinolin-4-yl]-4H-pyrimido[4,5-d]pyrimidin-2-one]	0.00117 µM	> 1 µM	< 0.1 µM	< 0.1 µM
C=C(F)C(=O)N1CC[C@@H](N2Cc3cnc(Nc4cnn(CCO)c4)nc3N(C)C2=O)c2cccc(OC)c21 (single isomer, unassigned) [Compound 119]	> 0.1 µM	> 0.1 µM	≥ 2.5 µM	≥ 2.5 µM
C=CC(=O)N1CC[C@H](N2Cc3cnc(Nc4ccc(N5CCN(C)CC5)cc4)nc3N(C)C2=O)C[C@@H]1CO [Compound 146, 3-[(2R,4S)-2-(hydroxymethyl)-1-prop-2-enoyl-4-piperidyl]-1-methyl-7-[4-(4-methylpiperazin-1-yl)anilino]-4H-pyrimido[4,5-d]pyrimidin-2-one]	> 1 µM	> 1 µM	0.5 to 2.5 µM	≥ 2.5 µM
C=CC(=O)N1C[C@@H](N2Cc3cnc(Nc4ccc(N5CCN(C)CC5)cc4)nc3N(C)C2=O)C[C@@H]1C(=O)O [Compound 138, (2R,4S)-4-[1-methyl-7-[4-(4-methylpiperazin-1-yl)anilino]-2-oxo-4H-pyrimido[4,5-d]pyrimidin-S-yl]-1-prop-2-enoyl-pyrrolidine-2-carboxylic acid]	> 1 µM	> 1 µM	≥ 2.5 µM	≥ 2.5 µM
C=CC(=O)N1c2ccccc2[C@@H](N2Cc3cnc(Nc4ccc(N5CCN(C)CC5)cc4)nc3N(C)C2=O)C[C@@H]1C [Compound 135, 1-methyl-7-[4-(4-methylpiperazin-1-yl)anilino]-3-[(2S,4S)-2-methyl-1-prop-2-enoyl-3,4-dihydro-2H-quinolin-4-yl]-4H-pyrimido[4,5-d]pyrimidin-2-one]	0.00089 µM	> 1 µM	< 0.1 µM	< 0.1 µM
C=CC(=O)N1CCC(N2Cc3cnc(Nc4ccc(N5CCN(C)CC5)cc4)nc3N(C)C2=O)c2cccc(O)c21 (single isomer, unassigned) [Compound 156]	0.00018 µM	0.00118 µM	< 0.1 µM	< 0.1 µM
C=C(CN1CC(N2Cc3cnc(Nc4ccc(N5CCN(C)CC5)cc4)nc3N(C)C2=O)C1)C(=O)O [Compound 137, 2-[[3-[1-methyl-7-[4-(4-methylpiperazin-1-yl)anilino]-2-oxo-4H-pyrimido[4,5-d]pyrimidin-S-yl]azetidin-1-yl]methyl]prop-2-enoic acid]	> 1 µM	> 1 µM	≥ 2.5 µM	≥ 2.5 µM
C=CC(=O)N1CC[C@H](N2Cc3cnc(Nc4cnn(CCO)c4)nc3N(C)C2=O)c2cccc(OC)c21 [Compound 118]	> 0.1 µM	> 0.1 µM	0.1 to 0.5 µM	0.5 to 2.5 µM
C=CC(=O)N1CC[C@@H](N2Cc3cnc(Nc4ccc(N5CCN(C)CC5)cc4)nc3N(C)C2=O)c2cccc(O)c21 (single isomer, unassigned) [Compound 155]	0.0123 µM	0.0857 µM	< 0.1 µM	0.1 to 0.5 µM
[2H]C1(N2Cc3cnc(Nc4ccc(OCCN5CCCC5)cc4)nc3N(C)C2=O)CCN(C(=O)C=C)c2ccccc21 (stereo not shown) [Compound 128]	0.0009 µM	> 0.7 µM	< 0.1 µM	< 0.1 µM
C=CC(=O)N1CCC(N2Cc3cnc(Nc4ccc(N5CCN(C)CC5)cc4)nc3N(C)C2=O)C(c2ccccc2)C1 (stereo not shown) [Compound 159]	> 0.1 µM	> 0.1 µM	0.5 to 2.5 µM	≥ 2.5 µM
[2H]C1(N2Cc3cnc(Nc4ccc(N5CCN(C)CC5)cc4)nc3N(C)C2=O)CCN(C(=O)C=C)c2c(OC)cccc21 (stereo not shown) [Compound 130, 3-(4-deuterio-8-methoxy-1-prop-2-enoyl-2,3-dihydroquinolin-4-yl)-1-methyl-7-[4-(4-methylpiperazin-1-yl)anilino]-4H-pyrimido[4,5-d]pyrimidin-2-one]	0.043 µM	> 1 µM	< 0.1 µM	0.1 to 0.5 µM
C=CC(=O)N1CCC(N2Cc3cnc(Nc4ccc(N5CCN(C)CC5)cc4)nc3N(C)C2=O)c2cccc(C(F)(F)F)c21 (stereo not drawn) [Compound 143, 1-methyl-7-[4-(4-methylpiperazin-1-yl)anilino]-S-[1-prop-2-enoyl-8-(trifluoromethyl)-3,4-dihydro-2H-quinolin-4-yl]-4H-pyrimido[4,5-d]pyrimidin-2-one]	> 1 µM	> 1 µM	0.5 to 2.5 µM	≥ 2.5 µM
C=C(CN1CCC(N2Cc3cnc(Nc4ccc(N5CCN(C)CC5)cc4)nc3N(C)C2=O)C1)C(=O)O (stereo not shown) [Compound 136, 2-[[3-[1-methyl-7-[4-(4-methylpiperazin-1-yl)anilino]-2-oxo-4H-pyrimido[4,5-d]pyrimidin-S-yl]pyrrolidin-1-yl]methyl]prop-2-enoic acid]	> 1 µM	> 1 µM	≥ 2.5 µM	≥ 2.5 µM
C=C1CC[C@H]2C[C@@H](N3Cc4cnc(Nc5ccc(N6CCN(C)CC6)cc5)nc4N(C)C3=O)CCN2C1=O [Compound 157, 1-methyl-S-(7-methylene-6-oxo-2,3,4,8,9,9a-hexahydro-1 H-quinolizin-2-yl)-7-[4-(4-methylpiperazin-1-yl)anilino]-4H-pyrimido[4,5-d]pyrimidin-2-one]	> 1 µM	> 1 µM	≥ 2.5 µM	≥ 2.5 µM
C=CC(=O)N1CCC(n2c(=O)c3cnc(Nc4cnn(CCO)c4)nc3n(C)c2=O)c2ccccc21 (stereo not drawn) [Compound 122, 7-[[1-(2-hydroxyethyl)pyrazol-4-yl]amino]-1-methyl-S-(1-prop-2-enoyl-3,4-dihydro-2H-quinolin-4-yl)pyrimido[4,5-d]pyrimidine-2,4-dione]	> 0.1 µM	> 0.1 µM	0.1 to 0.5 µM	0.5 to 2.5 µM
C=CC(=O)Nc1cccc(N2C(=O)N(C3CCN(C(=O)C=C)c4ccccc43)Cc3cnc(Nc4ccc(N5CCN(C)CC5)cc4)nc32)c1 (stereo not drawn) [Compound 158, N-[3-[7-[4-(4-methylpiperazin-1-yl)anilino]-2-oxo-S-(1-prop-2-enoyl-3,4-dihydro-2H-quinolin-4-yl)-4H-pyrimido[4,5-d]pyrimidin-1-yl]phenyl]prop-2-enamide]	0.00107 µM	0.00071 µM	< 0.1 µM	< 0.1 µM
C=CC(=O)N1CCC(C)(N2Cc3cnc(Nc4cnn(CCO)c4)nc3N(C)C2=O)CC1 [Compound 125, 7-[[1-(2-hydroxyethyl)pyrazol-4-yl]amino]-1-methyl-S-(4-methyl-1-prop-2-enoyl-4-piperidyl)-4H-pyrimido[4,5-d]pyrimidin-2-one]	> 0.1 µM	> 0.1 µM	≥ 2.5 µM	≥ 2.5 µM
C=CC(=O)N1CCC(N2Cc3cnc(Nc4ccc(N5CCN(C)CC5)cc4)nc3N(C)C2=O)c2cccc(OC)c21 (single isomer, unassigned) [Compound 124]	> 0.1 µM	> 0.1 µM	≥ 2.5 µM	–
CN1C(=O)N([C@H]2CCN(C(=O)CC#N)c3ccccc32)Cc2cnc(Nc3cnn(CCO)c3)nc21 [Compound 104]	–	–	≥ 2.5 µM	≥ 2.5 µM
C=CC(=O)N1CCC(N2Cc3cnc(Nc4ccc(N(C)CCN(C)C)cc4)nc3N(C)C2=O)c2ccccc21 (stereo not shown) [Compound 075]	–	–	< 0.1 µM	< 0.1 µM

Reference: US20240352021A1 (DANA-FARBER CANCER INSTITUTE, INC., priority 2021, published 2024)
